A short description of assay [1]: DPPH radical scavenging activity. The procedure:
The 2,2-diphenyl-1-picrylhydrazyl (DPPH) radical scavenging activity was evaluated as described (Gupta D et al., BMC Complement Altem Med, 2011; 11:13. doi: 10.1186/1472-6882-11-13) with modifications. In this assay, 0.2 mL of sample at different concentrations (1-1000 μg/mL) was added to 1.8 mL of DPPH solution (0.11 mM) in 80% ethanol. The mixture was then incubated for 30 minutes and at room temperature in the dark. The absorbance at 517 nm was then measured with ascorbic acid and butylhydroxytoluene (BHT) as reference antioxidants. A 0.2 mL of solvent extract dilution added to 1.8 mL of DPPH solution (0.11 mM) in 80% ethanol serve as the control. Two independent experiments were performed in triplicate. The percentage inhibition was calculated relative to the control using the equation, inhibition of DPPH radical (%)=(1−(Abssample/Abscontrol))×100.

For the next assay, the system named is STAT-3 phosphorylation. Put plainly: Interleukin-6 induced STAT-3 phosphorylation. It is filed as cell-based. The conditions noted are these: IL-6 induced STAT-3 phosphorylation; 100 uM.

As for `O=C1O[C@H]([C@@H](O)CO)C(O)=C1O` [Ascorbic acid, ascorbic acid], the “DPPH radical scavenging activity, %” value in assay [1] (300 μM) is listed as 37.60 ± 0.47%.

Consider `O=c1c(-c2ccc(O)cc2)coc2cc(O)cc(O)c12` [Genestain], for which the “% Inhibition” value with STAT-3 phosphorylation was determined as 96.25%.

For `O=C(NC(Cc1cc(=O)[nH]c2ccccc12)C(=O)O)c1ccc(Cl)cc1` (stereo not drawn) [Rebamipde, rebamipide], the “DPPH radical scavenging activity, %” value in assay [1] (100 μg/mL) is 0.93 ± 0.83%.

(Values after patent US20190224261A1, “LICORICE EXTRACT COMPOSITIONS AND METHOD OF USE” (Adbiotech, Co. Ltd, priority 2018, published 2019).)
